The text below walks through data of patent US6410249B1, “Odorant receptors” (priority 1999, dated 2002).

Molecules are shown by their SMILES. Where two headings read alike, the source gives them in different places.

Test [1] concerns goldfish olfactory neurons. Description: multi-unit recordings from the goldfish olfactory epithelium. Format: cell-based. Particulars: 0.1 μM.
Test [2] has as its target T1, receptor 5.24 (Carassius auratus, UniProt Q9PW88).
T1 construct: The receptor 5.24 full length cDNA detects 1-2 bands in genomic DNA blots; expressed in transfected cells; host or cells: HEK 293 cells expressing SV40 large T antigen (293-TSA)
T1 sequence (Q9PW88 25-877): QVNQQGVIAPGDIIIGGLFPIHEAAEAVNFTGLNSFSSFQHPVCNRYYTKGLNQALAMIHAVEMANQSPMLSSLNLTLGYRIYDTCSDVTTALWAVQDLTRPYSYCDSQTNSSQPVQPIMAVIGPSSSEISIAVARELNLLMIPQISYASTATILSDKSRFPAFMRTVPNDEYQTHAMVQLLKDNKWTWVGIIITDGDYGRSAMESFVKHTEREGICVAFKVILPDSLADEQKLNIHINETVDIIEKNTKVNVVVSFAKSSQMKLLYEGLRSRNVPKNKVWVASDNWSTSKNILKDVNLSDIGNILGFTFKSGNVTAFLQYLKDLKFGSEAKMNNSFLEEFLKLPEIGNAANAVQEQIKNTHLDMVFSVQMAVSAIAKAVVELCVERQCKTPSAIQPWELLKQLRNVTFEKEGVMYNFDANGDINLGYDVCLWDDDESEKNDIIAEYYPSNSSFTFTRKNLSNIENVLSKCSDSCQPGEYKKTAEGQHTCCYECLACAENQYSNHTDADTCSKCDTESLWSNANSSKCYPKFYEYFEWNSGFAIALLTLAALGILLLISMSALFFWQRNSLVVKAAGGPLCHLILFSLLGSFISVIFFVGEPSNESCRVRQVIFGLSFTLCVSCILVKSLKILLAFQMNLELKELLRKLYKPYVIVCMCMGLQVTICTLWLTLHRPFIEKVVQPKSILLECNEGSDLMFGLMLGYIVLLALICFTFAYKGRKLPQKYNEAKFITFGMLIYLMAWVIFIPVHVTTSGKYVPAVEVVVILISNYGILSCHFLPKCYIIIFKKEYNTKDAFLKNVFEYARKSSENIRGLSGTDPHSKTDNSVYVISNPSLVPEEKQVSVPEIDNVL
Description: 3H-L-arginine saturation binding to membranes of receptor 5.24-expressing HEK 293 cells. Further details: species or system goldfish. To be noted: summary statement; read-out: Kd (high affinity interaction). The text has this: High-Affinity Binding of Radiolabeled L-Arginine to the Cloned Goldfish Odorant Receptor. To determine the affinity of the cloned goldfish amino acid receptor for basic amino acids, we characterized the ligand-receptor interaction by radiolabeled ligand binding to receptors expressed in mammalian cells. Human embryonic kidney (HEK) 293 cells were transfected with expression plasmids containing the receptor 5.24 cDNA insert. […] We next wished to determine what second messenger pathway receptor 5.24 couples to in HEK 293 cells. Control cells or cells expressing receptor 5.24 were exposed to varying concentrations of arginine and assayed for the accumulation of IP3 and cAMP.
Mammalian Cell Culture and DNA Transfections. For cell transfections, the receptor 5.24 cDNA insert was subcloned into two expression vectors: CMVI, which utilizes a human cytomegalovirus (CMV) immediate early promoter-enhancer plus the CMV intron A sequence to drive expression, and 608RX-2.2L, which is similar to CMVI except the cDNA insert is followed by an internal ribosome entry site (IRES)—enhanced green fluorescent protein (EGFP) coding sequence; 608RX-2.2L also contains a puromycin resistance gene. For transient assays, HEK 293 cells expressing the SV40 large T antigen (293 TSA cells) were transfected with the CMVI-receptor 5.24 or CMVI control plasmid using lipofectamine (Life Technologies) and harvested at 48 hours for membrane preparations. For stable cell lines, 293-TSA cells were transfected with the 608RX-2.2L-receptor 5.24 plasmid or a control 608RX-2.2L plasmid and selected in puromycin. Colonies showing high levels of EGFP fluorescence (as judged by epifluorescence microscopy) were picked, expanded, and screened for 3H-L-arginine binding (see below). In five independent receptor 5.24-transfected stable cell lines, receptor densities (Rt) varied between 0.5 and 6.0 pmol L-arginine binding sites/mg membrane protein. […] All competition binding assays and signal transduction studies were performed using the stable cell line 5.24-20 (Rt=2.0 pmol /mg) and a control cell line (2.2-9) stably transfected with vector alone (Rt=0.03 pmol/mg).
(§1) Membrane Preparations and Ligand Binding Assays. Membranes for ligand binding assays were prepared by washing confluent cells three times with phosphate buffered saline (PBS), detaching cells with a PBS-based enzyme-free dissociation solution, and resuspending cells in ice-cold 5.0 mM Hepes, pH 7.4, 1.0 mM EDTA, 1.0 μg/ml leupeptin, 0.5 mM PMSF. All subsequent manipulations were performed on ice. After a 30 min incubation, the cell suspension was homogenized and centrifuged at 100,000×g for 30 min. Cell membrane pellets were washed twice by resuspension and centrifugation in binding buffer (20 mM Hepes, pH 7.4, 1.0 mM EDTA, 2.0 mM MgCl2, 1.0 μg/ml leupeptin, 0.5 mM PMSF), resuspended in binding buffer, and frozen at −80° C.
Saturation binding assays were performed using 20-25 μg of membrane protein in a final volume of 100 μl binding buffer and increasing concentrations of [2,3-3H] L-arginine (specific activity=40 Ci/mmol; Dupont NEN). Non-specific binding was measured in the presence of 500 μM unlabeled L-arginine. Competition assays were performed with 500 nM [2,3-3H] […] Filters were washed three times with 4.0 ml ice cold 20 mM Hepes, pH 7.4, and retained radioactivity was measured by scintillation counting. […] Data were analyzed by nonlinear curve fitting using Origin software (Microcal). […]

For test [3], the target named is T1, receptor 5.24. Description: biochemical. Format: binding. The method, then: Structure-Activity Properties of Compounds Interacting with the Cloned Goldfish Amino Acid Odorant Receptor. An understanding of how odorant receptors are used to encode olfactory information requires a characterization of the odorant specificities of individual receptor types. We therefore wished to determine the relative specificity of receptor 5.24 for structurally related ligands. […] Briefly, 3H-arginine binding to membranes from receptor 5.24-expressing HEK 293 cells was assayed in the absence or presence of varying concentrations of competitor ligands.
Mammalian Cell Culture and DNA Transfections. For cell transfections, the receptor 5.24 cDNA insert was subcloned into two expression vectors: CMVI, which utilizes a human cytomegalovirus (CMV) immediate early promoter-enhancer plus the CMV intron A sequence to drive expression, and 608RX-2.2L, which is similar to CMVI except the cDNA insert is followed by an internal ribosome entry site (IRES)—enhanced green fluorescent protein (EGFP) coding sequence; 608RX-2.2L also contains a puromycin resistance gene. For transient assays, HEK 293 cells expressing the SV40 large T antigen (293 TSA cells) were transfected with the CMVI-receptor 5.24 or CMVI control plasmid using lipofectamine (Life Technologies) and harvested at 48 hours for membrane preparations. For stable cell lines, 293-TSA cells were transfected with the 608RX-2.2L-receptor 5.24 plasmid or a control 608RX-2.2L plasmid and selected in puromycin. Colonies showing high levels of EGFP fluorescence (as judged by epifluorescence microscopy) were picked, expanded, and screened for 3H-L-arginine binding (see below).
as §1
Saturation binding assays were performed using 20-25 μg of membrane protein in a final volume of 100 μl binding buffer and increasing concentrations of [2,3-3H] L-arginine (specific activity=40 Ci/mmol; Dupont NEN). Non-specific binding was measured in the presence of 500 μM unlabeled L-arginine. Competition assays were performed with 500 nM [2,3-3H] L-arginine and increasing concentrations of competitor ligands. All incubations were performed at 4° C. for 60 min and terminated by rapid filtration through Whatman GF/C filters pretreated with ice cold 0.1% polyethyleneimine. Filters were washed three times with 4.0 ml ice cold 20 mM Hepes, pH 7.4, and retained radioactivity was measured by scintillation counting.

For test [4], the system named is salmon olfactory neurons. Particulars: 0.01-10 μM, isolated salmon olfactory neurons; cited from earlier work.
The target in test [5] is T1, receptor 5.24. Description: evoked currents in Xenopus oocytes expressing receptor 5.24 (two-electrode voltage clamp). Format: cell-based, goldfish. From the text: Identification by Expression Cloning of a cDNA Encoding a Goldfish Odorant Receptor. RNA was synthesized from pools of goldfish olfactory cDNA clones (900 individual clones per pool) and injected into Xenopus oocytes together with synthetic RNAs encoding GIRK and Gaolf. Oocytes were then screened for responses upon exposure to odorant cocktails containing amino acids, bile acids, or sex pheromones. […] The response to amino acids was biphasic, beginning with an oscillating inward current above the basal inward K+ current, followed by a decline in inward current to below the basal level. Such a biphasic effect is thought to be caused by Gaq-mediated activation of phospholipase C (responsible for the intial inward current via IP3) and protein kinase C (leading to suppression of the K+ current through phosphorylation of GIRK channel subunits) (Sharon et al., 1997).
Iterative subdivision of pool 19 by sib-selection allowed the isolation of a single clone encoding a receptor, designated receptor 5.24.
Oocytes were removed from anesthetized Xenopus laevis and treated with collagenase. Forty nanograms of cRNA from each cDNA library pool (˜40 pg cRNA/clone) was injected per oocyte, together with cRNAs encoding Gaolf and the GIRK subunits Kir 3.1 and Kir 3.4 (˜30 pg each). Approximately 30 pools were assayed before these primary screens were halted. Injected oocytes were incubated at 17° C. for over 80 hours prior to electrophysiological recordings. Recordings were performed by two-electrode voltage clamping using an Axoclamp-2A amplifier (Axon Instruments) or a Dagan CA-1 amplifier (Dagan Corp.). Data acquisition and analysis were performed using pCLAMP software (Axon Instruments). Membrane potential was held at −80 mV. For trials involving GIRK, oocytes were first perfused with Na-MBSH (88 mM NaCl, 1 mM KCl, 2.4 mM NaHCO3, 10 mM Hepes, pH 7.5, 0.82 mM MgSO4[7H2O], 0.33 mM Ca[NO3]2[4H2O], 0.41 mM CaCl2[2H2O]), and then switched into K-MBSH, which contains elevated K+ (88 mM KCl, 1 mM NaCl) until the basal current had stabilized (˜45 seconds) before challenging with agonist. Recordings on oocytes injected with receptor 5.24 in the absence of Gaolf and/or GIRK subunits were performed in Na-MBSH. Oocytes were exposed to solutions containing different agonists by switching bathing solutions with an 8 channel valve (Hamilton).

On to `CCCCCC(=O)/C=C/[C@@H]1[C@@H](C/C=C\CCCC(=O)O)[C@@H](O)C[C@H]1O` [1 5-ketoprostaglandin F2a], for which the locations that responded in test [1] is 25 out of 65.
As to `NCCCC[C@H](N)C(=O)O` [L-Lysine], in test [2], the Kd was approximately 100 nM. In test [3], this compound came in with a Ki of 90 nM. Besides, the “binding to receptor 5.24, in words” value in test [3] (comparative binding studies) is “highest affinities”.
With `N[C@@H](CO)C(=O)O` [L-Serine], in test [3] (displacement of 3H-L-arginine from membranes of HEK 293 cells expressing receptor 5.24, read-out: Ki (binding affinity)), the inhibitory constant (Ki) is 2800 nM. The “fraction of cells sensitive” value in test [4] is recorded as approximately 60%. In addition, the “activation of receptor 5.24 (evoked currents), in words” value in test [5] is recorded as “smaller responses”.
